Reference: ChEMBL document CHEMBL4507292 (2021)

Legend:
[1] = molecular target: Ribosomal protein S6 kinase alpha-4 (Homo sapiens) (UniProt O75676); conditions: Compound concentration 1000.0 nM
[2] = system: Tyrosine-protein kinase ABL1 (Homo sapiens), P00519 [F317L]; conditions: Compound concentration 1000.0 nM
[3] = molecular target: Mitogen-activated protein kinase kinase kinase 19 (Homo sapiens) (UniProt Q56UN5); conditions: Compound concentration 1000.0 nM
[4] = molecular target: Tyrosine-protein kinase ITK/TSK (Homo sapiens) (UniProt Q08881); conditions: Compound concentration 1000.0 nM
Insulin receptor = Insulin receptor (Homo sapiens, UniProt P06213); conditions: Compound concentration 1000.0 nM
[5] = system: eIF-2-alpha kinase GCN2 (Homo sapiens), Q9P2K8 [S808G]; conditions: Compound concentration 1000.0 nM
[6] = system: Receptor-type tyrosine-protein kinase FLT3 (Homo sapiens), P36888 [K663Q]; conditions: Compound concentration 1000.0 nM
[7] = molecular target: Dual specificity mitogen-activated protein kinase kinase 7 (Homo sapiens) (UniProt O14733); conditions: Compound concentration 1000.0 nM
Dual specificity mitogen-activated protein kinase kinase 7 (Homo sapiens), sequence (O14733 whole entry): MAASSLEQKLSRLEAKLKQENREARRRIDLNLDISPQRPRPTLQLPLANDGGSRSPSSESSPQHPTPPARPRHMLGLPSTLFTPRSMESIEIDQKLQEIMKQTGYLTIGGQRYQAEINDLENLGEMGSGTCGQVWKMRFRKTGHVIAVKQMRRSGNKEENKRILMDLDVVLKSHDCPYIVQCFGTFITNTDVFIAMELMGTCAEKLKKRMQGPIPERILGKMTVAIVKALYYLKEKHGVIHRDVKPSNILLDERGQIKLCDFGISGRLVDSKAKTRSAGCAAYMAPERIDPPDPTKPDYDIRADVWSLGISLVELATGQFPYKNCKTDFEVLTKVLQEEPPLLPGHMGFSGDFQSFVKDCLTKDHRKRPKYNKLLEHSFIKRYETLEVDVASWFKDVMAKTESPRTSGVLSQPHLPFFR

[8] = molecular target: T1, Alpha-2A adrenergic receptor (Homo sapiens) (UniProt P08913); conditions: Compound concentration 10.0 uM
T1 sequence (whole entry): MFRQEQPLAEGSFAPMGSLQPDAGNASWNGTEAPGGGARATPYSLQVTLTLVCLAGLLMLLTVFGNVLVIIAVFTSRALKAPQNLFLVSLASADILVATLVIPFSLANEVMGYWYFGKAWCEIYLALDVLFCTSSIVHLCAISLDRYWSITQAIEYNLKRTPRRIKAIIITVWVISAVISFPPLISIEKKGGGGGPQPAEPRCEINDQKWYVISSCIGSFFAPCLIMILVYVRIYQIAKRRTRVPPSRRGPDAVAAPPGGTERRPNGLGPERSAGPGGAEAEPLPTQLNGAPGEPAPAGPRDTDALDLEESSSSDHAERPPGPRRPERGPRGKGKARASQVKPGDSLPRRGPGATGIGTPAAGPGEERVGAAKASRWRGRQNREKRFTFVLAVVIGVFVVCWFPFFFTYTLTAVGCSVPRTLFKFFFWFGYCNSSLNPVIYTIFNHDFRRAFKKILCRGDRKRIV

[9] = molecular target: Beta-3 adrenergic receptor (Homo sapiens, UniProt P13945); test: GPCRScan assay: inhibition of Beta3; design: radioligand conc. used [nm] 0.2 – 0.5, parental cells HEK Flp-In
[10] = molecular target: 3-phosphoinositide-dependent protein kinase 1 (Homo sapiens) (UniProt O15530); conditions: Compound concentration 1000.0 nM
3-phosphoinositide-dependent protein kinase 1 (Homo sapiens), sequence (O15530 whole entry): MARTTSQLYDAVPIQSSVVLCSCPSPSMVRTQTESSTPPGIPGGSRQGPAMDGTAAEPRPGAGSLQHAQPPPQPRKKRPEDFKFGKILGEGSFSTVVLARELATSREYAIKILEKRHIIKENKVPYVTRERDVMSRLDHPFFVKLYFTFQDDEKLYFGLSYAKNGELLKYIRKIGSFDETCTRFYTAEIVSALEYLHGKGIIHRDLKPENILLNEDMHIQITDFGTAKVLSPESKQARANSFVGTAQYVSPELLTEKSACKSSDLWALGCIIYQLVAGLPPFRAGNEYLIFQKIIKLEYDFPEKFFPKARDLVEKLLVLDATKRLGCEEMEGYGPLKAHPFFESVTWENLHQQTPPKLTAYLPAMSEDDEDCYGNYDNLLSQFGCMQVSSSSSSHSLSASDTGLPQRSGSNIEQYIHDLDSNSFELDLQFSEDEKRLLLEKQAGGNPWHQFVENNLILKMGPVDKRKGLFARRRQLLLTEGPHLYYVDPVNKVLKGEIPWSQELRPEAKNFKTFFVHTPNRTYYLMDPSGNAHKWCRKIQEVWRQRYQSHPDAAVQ

[11] = molecular target: Myosin light chain kinase 2, skeletal/cardiac muscle (Homo sapiens) (UniProt Q9H1R3); conditions: Compound concentration 1000.0 nM
[12] = molecular target: Serine/threonine-protein kinase haspin (Homo sapiens) (UniProt Q8TF76); conditions: Compound concentration 1000.0 nM
Serine/threonine-protein kinase haspin (Homo sapiens), sequence (Q8TF76 whole entry): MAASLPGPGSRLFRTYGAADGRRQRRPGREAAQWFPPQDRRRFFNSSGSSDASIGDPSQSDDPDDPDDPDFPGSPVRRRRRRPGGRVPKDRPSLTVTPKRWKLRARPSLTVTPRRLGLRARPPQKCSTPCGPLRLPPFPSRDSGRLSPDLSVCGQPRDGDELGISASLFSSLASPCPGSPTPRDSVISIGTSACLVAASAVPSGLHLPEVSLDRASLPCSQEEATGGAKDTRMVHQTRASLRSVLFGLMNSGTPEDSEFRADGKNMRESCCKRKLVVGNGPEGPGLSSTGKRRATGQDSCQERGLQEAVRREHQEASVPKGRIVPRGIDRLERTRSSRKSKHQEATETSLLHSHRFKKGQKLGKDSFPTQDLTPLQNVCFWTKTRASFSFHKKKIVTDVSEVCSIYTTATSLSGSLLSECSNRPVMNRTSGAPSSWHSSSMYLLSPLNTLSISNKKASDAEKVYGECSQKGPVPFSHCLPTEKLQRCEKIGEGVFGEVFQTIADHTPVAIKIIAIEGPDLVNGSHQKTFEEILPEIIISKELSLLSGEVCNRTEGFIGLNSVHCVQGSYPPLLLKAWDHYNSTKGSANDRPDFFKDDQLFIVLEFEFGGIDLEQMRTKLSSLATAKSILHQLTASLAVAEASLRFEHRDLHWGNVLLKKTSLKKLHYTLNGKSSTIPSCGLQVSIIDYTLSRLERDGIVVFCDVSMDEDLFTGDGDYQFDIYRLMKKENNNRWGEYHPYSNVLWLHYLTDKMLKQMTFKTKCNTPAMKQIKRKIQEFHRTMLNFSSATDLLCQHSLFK

[13] = system: Epidermal growth factor receptor (Homo sapiens), P00533 [UNDEFINED MUTATION]; conditions: Compound concentration 1000.0 nM
[14] = molecular target: Inhibitor of nuclear factor kappa-B kinase subunit beta (Homo sapiens) (UniProt O14920); conditions: Compound concentration 1000.0 nM
Inhibitor of nuclear factor kappa-B kinase subunit beta (Homo sapiens), sequence (O14920 whole entry): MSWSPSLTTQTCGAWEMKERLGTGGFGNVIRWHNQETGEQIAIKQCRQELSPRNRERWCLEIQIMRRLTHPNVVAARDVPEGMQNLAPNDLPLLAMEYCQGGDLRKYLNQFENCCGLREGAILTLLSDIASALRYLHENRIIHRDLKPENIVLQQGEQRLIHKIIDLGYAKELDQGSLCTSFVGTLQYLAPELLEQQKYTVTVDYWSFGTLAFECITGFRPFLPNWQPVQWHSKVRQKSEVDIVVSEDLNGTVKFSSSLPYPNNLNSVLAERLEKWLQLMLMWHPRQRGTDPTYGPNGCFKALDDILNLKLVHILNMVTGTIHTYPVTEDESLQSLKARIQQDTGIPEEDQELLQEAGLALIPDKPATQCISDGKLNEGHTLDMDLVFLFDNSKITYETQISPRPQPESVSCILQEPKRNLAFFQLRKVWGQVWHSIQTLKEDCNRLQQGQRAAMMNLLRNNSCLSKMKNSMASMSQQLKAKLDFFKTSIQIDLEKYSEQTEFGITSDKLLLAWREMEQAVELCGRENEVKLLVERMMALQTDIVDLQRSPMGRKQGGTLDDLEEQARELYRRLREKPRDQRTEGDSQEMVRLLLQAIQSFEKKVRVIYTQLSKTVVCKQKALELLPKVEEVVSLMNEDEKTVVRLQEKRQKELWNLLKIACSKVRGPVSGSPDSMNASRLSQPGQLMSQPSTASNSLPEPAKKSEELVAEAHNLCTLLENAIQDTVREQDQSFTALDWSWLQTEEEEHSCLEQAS

[15] = molecular target: Mitotic checkpoint serine/threonine-protein kinase BUB1 (Homo sapiens) (UniProt O43683); conditions: Compound concentration 1000.0 nM
[16] = molecular target: Cyclin-dependent kinase 3 (Homo sapiens) (UniProt Q00526); conditions: Compound concentration 1000.0 nM
[17] = molecular target: ALK tyrosine kinase receptor (Homo sapiens) (UniProt Q9UM73); conditions: Compound concentration 1000.0 nM
[18] = molecular target: 5-hydroxytryptamine receptor 1E (Homo sapiens) (UniProt P28566); conditions: Compound concentration 10.0 uM
[19] = molecular target: Serine/threonine-protein kinase NLK (Homo sapiens) (UniProt Q9UBE8); conditions: Compound concentration 1000.0 nM
Serine/threonine-protein kinase NLK (Homo sapiens), sequence (Q9UBE8 whole entry): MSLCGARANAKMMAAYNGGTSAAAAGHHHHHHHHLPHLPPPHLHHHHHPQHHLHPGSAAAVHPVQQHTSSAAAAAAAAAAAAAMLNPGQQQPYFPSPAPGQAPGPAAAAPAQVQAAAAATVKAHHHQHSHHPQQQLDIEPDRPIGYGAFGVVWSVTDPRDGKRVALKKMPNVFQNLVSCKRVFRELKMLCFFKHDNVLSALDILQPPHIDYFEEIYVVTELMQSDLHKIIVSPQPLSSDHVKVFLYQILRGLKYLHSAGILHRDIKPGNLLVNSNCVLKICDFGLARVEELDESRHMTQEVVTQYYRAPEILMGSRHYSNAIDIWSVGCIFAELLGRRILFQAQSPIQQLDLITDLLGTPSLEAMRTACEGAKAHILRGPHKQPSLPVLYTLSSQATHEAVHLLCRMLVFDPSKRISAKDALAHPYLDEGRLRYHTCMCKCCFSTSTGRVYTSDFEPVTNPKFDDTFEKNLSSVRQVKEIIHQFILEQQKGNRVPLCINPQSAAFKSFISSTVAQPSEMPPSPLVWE

[20] = molecular target: T2, Muscarinic acetylcholine receptor M5 (Homo sapiens) (UniProt P08912); conditions: Compound concentration 10.0 uM
T2 sequence (whole entry): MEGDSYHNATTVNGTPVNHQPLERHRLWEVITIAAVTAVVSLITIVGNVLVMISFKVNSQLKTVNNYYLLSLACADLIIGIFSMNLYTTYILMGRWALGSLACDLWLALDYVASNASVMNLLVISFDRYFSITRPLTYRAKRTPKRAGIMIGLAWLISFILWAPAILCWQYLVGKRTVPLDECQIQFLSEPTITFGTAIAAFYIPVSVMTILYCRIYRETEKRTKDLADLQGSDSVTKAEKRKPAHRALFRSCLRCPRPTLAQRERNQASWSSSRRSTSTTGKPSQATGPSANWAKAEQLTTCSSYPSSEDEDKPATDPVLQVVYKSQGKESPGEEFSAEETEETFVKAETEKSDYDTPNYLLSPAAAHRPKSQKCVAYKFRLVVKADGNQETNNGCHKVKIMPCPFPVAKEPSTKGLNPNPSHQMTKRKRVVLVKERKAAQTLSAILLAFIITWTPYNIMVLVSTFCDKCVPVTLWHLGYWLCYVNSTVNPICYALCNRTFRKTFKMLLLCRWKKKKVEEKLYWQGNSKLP

[21] = molecular target: Bone morphogenetic protein receptor type-1B (Homo sapiens) (UniProt O00238); conditions: Compound concentration 1000.0 nM
[22] = molecular target: Serine/threonine-protein kinase 24 (Homo sapiens) (UniProt Q9Y6E0); conditions: Compound concentration 1000.0 nM
[23] = molecular target: Interleukin-1 receptor-associated kinase 1 (Homo sapiens) (UniProt P51617); conditions: Compound concentration 1000.0 nM
[24] = molecular target: cGMP-dependent protein kinase 2 (Homo sapiens) (UniProt Q13237); conditions: Compound concentration 1000.0 nM
cGMP-dependent protein kinase 2 (Homo sapiens), sequence (Q13237 whole entry): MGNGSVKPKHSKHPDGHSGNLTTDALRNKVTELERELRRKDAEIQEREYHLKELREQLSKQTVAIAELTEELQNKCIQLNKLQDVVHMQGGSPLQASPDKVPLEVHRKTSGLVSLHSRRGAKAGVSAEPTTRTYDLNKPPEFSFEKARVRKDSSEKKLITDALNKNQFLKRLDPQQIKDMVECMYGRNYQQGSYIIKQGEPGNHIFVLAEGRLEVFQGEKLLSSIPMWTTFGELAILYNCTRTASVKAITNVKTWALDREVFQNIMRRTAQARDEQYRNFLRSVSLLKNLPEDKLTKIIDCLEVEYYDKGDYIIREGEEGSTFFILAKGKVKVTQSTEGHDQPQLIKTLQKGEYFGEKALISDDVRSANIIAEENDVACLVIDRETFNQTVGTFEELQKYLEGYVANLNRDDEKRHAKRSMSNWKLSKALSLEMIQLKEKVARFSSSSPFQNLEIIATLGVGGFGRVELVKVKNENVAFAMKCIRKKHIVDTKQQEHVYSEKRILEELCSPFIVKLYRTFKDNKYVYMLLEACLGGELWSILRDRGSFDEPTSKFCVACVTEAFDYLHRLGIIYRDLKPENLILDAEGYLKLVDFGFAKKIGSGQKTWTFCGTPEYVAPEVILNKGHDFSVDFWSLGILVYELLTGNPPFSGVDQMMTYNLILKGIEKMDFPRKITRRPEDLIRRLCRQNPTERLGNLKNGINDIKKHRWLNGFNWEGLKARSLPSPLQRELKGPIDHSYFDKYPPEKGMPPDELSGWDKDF

[25] = molecular target: Serine/threonine-protein kinase pim-2 (Homo sapiens) (UniProt Q9P1W9); conditions: Compound concentration 1000.0 nM
[26] = molecular target: Mitogen-activated protein kinase 13 (Homo sapiens) (UniProt O15264); conditions: Compound concentration 1000.0 nM
[27] = molecular target: Serine/threonine-protein kinase Nek11 (Homo sapiens) (UniProt Q8NG66); conditions: Compound concentration 1000.0 nM
[28] = molecular target: cGMP-dependent protein kinase 1 (Homo sapiens) (UniProt Q13976); conditions: Compound concentration 1000.0 nM
[29] = molecular target: TGF-beta receptor type-1 (Homo sapiens) (UniProt P36897); conditions: Compound concentration 1000.0 nM
[30] = molecular target: Tyrosine-protein kinase Fgr (Homo sapiens) (UniProt P09769); conditions: Compound concentration 1000.0 nM
[31] = molecular target: Cyclin-dependent kinase 7 (Homo sapiens) (UniProt P50613); conditions: Compound concentration 1000.0 nM
Cyclin-dependent kinase 7 (Homo sapiens), sequence (P50613 whole entry): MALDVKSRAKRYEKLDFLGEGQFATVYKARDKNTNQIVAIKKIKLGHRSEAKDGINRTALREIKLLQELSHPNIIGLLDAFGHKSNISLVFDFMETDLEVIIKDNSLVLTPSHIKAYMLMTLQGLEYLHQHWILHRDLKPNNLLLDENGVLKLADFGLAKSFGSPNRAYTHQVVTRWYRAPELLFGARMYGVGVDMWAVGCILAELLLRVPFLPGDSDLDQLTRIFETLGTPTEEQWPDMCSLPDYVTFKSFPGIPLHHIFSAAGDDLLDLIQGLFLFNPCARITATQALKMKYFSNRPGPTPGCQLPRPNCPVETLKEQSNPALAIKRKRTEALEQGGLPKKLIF

Ribosomal protein S6 kinase alpha-4 (Homo sapiens), sequence (O75676 whole entry, looked up): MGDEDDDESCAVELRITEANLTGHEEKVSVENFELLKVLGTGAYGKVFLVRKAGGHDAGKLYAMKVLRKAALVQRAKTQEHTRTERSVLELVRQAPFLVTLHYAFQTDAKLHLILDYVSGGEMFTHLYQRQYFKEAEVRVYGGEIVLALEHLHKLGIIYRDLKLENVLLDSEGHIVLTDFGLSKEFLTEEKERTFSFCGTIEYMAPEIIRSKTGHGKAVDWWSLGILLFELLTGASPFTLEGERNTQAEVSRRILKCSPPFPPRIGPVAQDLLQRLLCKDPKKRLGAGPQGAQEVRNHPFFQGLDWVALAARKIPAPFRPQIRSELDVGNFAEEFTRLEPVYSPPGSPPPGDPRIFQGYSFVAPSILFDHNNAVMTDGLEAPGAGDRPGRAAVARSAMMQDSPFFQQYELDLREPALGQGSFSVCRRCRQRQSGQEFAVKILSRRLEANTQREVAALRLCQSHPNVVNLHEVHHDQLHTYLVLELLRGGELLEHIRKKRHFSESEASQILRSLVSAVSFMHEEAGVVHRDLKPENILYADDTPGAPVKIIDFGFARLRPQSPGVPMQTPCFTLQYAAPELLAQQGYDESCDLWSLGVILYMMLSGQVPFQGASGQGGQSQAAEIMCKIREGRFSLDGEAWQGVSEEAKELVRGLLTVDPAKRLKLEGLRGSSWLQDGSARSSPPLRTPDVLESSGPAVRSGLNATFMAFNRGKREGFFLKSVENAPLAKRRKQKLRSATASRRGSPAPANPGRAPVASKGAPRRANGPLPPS

Row | SMILES | residual activity [1] | residual activity [2] | residual activity [3] | residual activity [4] | residual activity (Insulin receptor) | residual activity [5] | residual activity [6] | residual activity [7] | inhibition [8] | Ki [9] | residual activity [10] | residual activity [11] | residual activity [12] | residual activity [13] | residual activity [14] | residual activity [15] | residual activity [16] | residual activity [17] | inhibition [18] | residual activity [19] | other results
1 | O=C(O)c1cc(-c2ccc(C3CCNCC3)cc2)c2ccc(-c3ccc(C(F)(F)F)cc3)cc2c1 [PPTN] | 100% | 100% | 100% | 100% | 100% | 100% | 100% | 100% | 38.2% | 2.92 µM | 100% | 100% | 100% | 100% | 100% | 100% | 100% | 100% | 13.4% | 100% | inhibition [20]: 10.1%; residual activity [21]: 100%; residual activity [22]: 100%; residual activity [23]: 100%; residual activity [24]: 79%; residual activity [25]: 100%; residual activity [26]: 97%; residual activity [27]: 100%; residual activity [28]: 100%; residual activity [29]: 81%; residual activity [30]: 100%; residual activity [31]: 82%
2 | Cc1c(C(=O)O)cc(-c2ccc(C3CCNCC3)cc2)c2ccc(-c3ccc(C(F)(F)F)cc3)cc12 [PPTN-NC] | 88% | 100% | 100% | 100% | 100% | 100% | 100% | 100% | 34.8% | 3.26 µM | 100% | 100% | 100% | 100% | 100% | 100% | 100% | 100% | 3.48% | 100% | inhibition [20]: 10.1%; residual activity [21]: 100%; residual activity [22]: 100%; residual activity [23]: 100%; residual activity [24]: 71%; residual activity [25]: 100%; residual activity [26]: 96%; residual activity [27]: 100%; residual activity [28]: 97%; residual activity [29]: 89%; residual activity [30]: 100%; residual activity [31]: 97%
